Patent US7728105B2, “Peptides impairing PBX dependent gene regulation” (St. George's Hospital Medical School, priority 2002, dated 2010)

Columns and labels:
Format in all cases: cell-based, human
[1] = test system: KG1a, HL60 and U937 leukaemic cell lines; test: RT-PCR of HOX/PBX target genes in leukaemic cell lines (Example 3)
Experimental: Total RNA was isolated from liquid nitrogen snap-frozen cells using RNeasy Mini Kit protocol (Qiagen, Crawley, UK). 50 μl reverse transcription reactions using 1 μg of RNA per reaction heated at 75° C. cDNA with 1 μg of oligo-dT for 10 mins. Samples were cooled on ice and mixed with 200 units of M-MLV reverse transcriptase (Promega, Southampton, UK) in its associated buffer, 400 μM of dNTPs (Promega), and 40 units of RNAseout (Invitrogen, Paisley, UK). Samples were then incubated at 37° C. for one hour and finally heated at 75° C. for 5 mins. PCR reactions (35 cycles, 94° C. 30 sec, 55° C. 30 sec, 72° C. 1 min) were carried out in a 20 μl reaction using JumpStart ReadyMix REDTaq DNA polymerase (Sigma-Aldrich) using an identical amount of cDNA per reaction with 1 μM of forward and reverse primers.

[2] = test system: KG1a, HL60 and U937 leukaemic cell lines; test: Growth of leukaemic cell lines over 48 hours (Example 3); conditions: 20 μg/ml
Experimental: KG1a, HL60 and U937 cell lines were seeded as described in Example 1.
All cell lines were grown with HXP peptide (20 μg/ml) or CXP (20 μg/ml). Cell lines were cultured for various time points at 37° C., 5% CO2 in humidified atmosphere and enumerated at various time points.

AC133+ cells = test: RT-PCR of CD38 and HOX genes in AC133+ cells
Experimental: Total RNA was extracted from cultured human cells using the Rneasy mini kit (Quiagen) and following the manufacturer's instructions. 3 μg of RNA was used in subsequent reverse transcription reactions. The RNA was mixed with a poly T15 oligo to 5 microgrammes/ml and heated to 75° C. for 5 minutes. After cooling on ice, the following additional reagents were added; dNTPs to 0.4 mM, RNase OUT (Promega) to 1.6 U/μl, Moloney Murine Leukemia Virus Reverse Transcriptase (M-MLRvT) RnaseH— point mutant (Promega) to 8 U/μl and the appropriate buffer (supplied by the manufacturer) to x1 concentration. The mixture was incubated for one hour at 37° C., heated to 70° C. for two minutes and cooled on ice.
PCR reactions were all performed in a total volume of 40 μl. For each we used 1 μl of the M-MLRvT reaction (as described above), 0.2 nmols of each primer and 20 microliters of Redimix pre-mixed PCR components (Sigma). All reactions were cycled at 94° C. for 30 seconds, 55° C. for 30 seconds and 72° C. for 60 seconds. 30 cycles were used for all primer sets except those for beta-actin, for which 23 cycles were used.

[3] = test system: PBX1, 2 and 3 association with HOX proteins; test: Cross-linking and Western blot of PBX proteins in KG1a cells (Example 2); conditions: 24 hours, 1 μM peptide, EDC cross-linking
Experimental: HXP and control peptides were as described in Example 1. KG1a cells were grown as described in Example 1. KG1a cells were cultured for 24 hours without treatment, or in the presence of 1 μM HXP peptide or control peptide. The cells were harvested and lysed. One aliquot of the cells was subject to cross-linking. Frozen cells were lysed using standard techniques and […] of lysate was incubated for 30 minutes at room temperature in 4 mM 1-ethyl-3-[3-(dimethyl-amino)propyl]carbodimide (EDC), 4 mM sulpho-NHS, 20 mM HEPES (pH 7.5), 5 mM MgCl2, and 0.03% (w/v) […] to cross-link non-covalently associated proteins. The reaction was stopped by the addition of ammonium acetate to a final concentration of 50 mM. The other aliquot was frozen without cross-linking.
Proteins were extracted from the cells of both aliquots by standard techniques and separated by gel electrophoresis. The gels were probed by Western blot with an antibody raised against PBX1, 2 and 3 (sc-888, Santa Cruz Inc. USA) or an anti-beta actin antibody (sc-1615, Santa Cruz Inc. USA).

Question: What does the source list for “WYPWMKKHHRQIKIWFQNRRMKWKK [HXP peptide]”?
Answer: MMP19 expression ([1]; KG1a): down-regulated; MMP1 expression ([1]; KG1a and U937 cells): down-regulated; CD38 gene expression ([1]; KG1a cell line): up-regulation; CD133, CD34, HOXB4, B8 and A9 gene expression ([1]; KG1a cell line): down-regulation; expression of the other genes examined ([1]; KG1a, HL60, U937, except CDC25, MMP1, MMP19 as stated): did not alter; CD38 gene expression ([1]; U937 and HL60 cell lines): up-regulated; HOXB4 and A9 gene expression ([1]; U937 and HL60 cell lines): down-regulation; HOXB8 gene expression ([1]; U937 and HL60 cell lines): unchanged; CDC25 expression ([1]; U937 cells): down-regulated; N-RAS oncogene expression ([1]; all of the cell lines (KG1a, HL60, U937)): completely down-regulated; cell growth inhibition on leukaemic cell lines [2]: potent cell growth inhibition; time at which cell growth inhibition is apparent [2]: two; CD38 gene expression (AC133+ cells): up-regulation; HOX B4, B8 and A9 gene expression (AC133+ cells; from as early as day 3): down-regulated; association of PBX proteins with other proteins (HOX proteins) [3]: none of the PBX isoforms from the HXP peptide treated cells were associated with other proteins
